1 compound from patent US7879826B2, “Derivatives of [2-(8,9-dioxo-2,6-diazabicyclo[5.2.0]non-1(7)-en-2-yl)alkyl]phosphonic acid and methods of making them” (Wyeth LLC, priority 2004, dated 2011) can be followed below.

For series [1], the system named is PGE2-induced thermal hypersensitivity. Nature of the series: Prostaglandin E2-induced thermal hypersensitivity (warm-water tail withdrawal). It is filed as in vivo, Spraque-Dawley rats. To be noted: rat, 10 mg/kg p.o., single dose; assessed 30 min after PGE2 injection. As for the experimental part: Individually housed Spraque-Dawley rats had free access to rat chow and water. A 12-h light/12-h dark cycle was in effect (lights on from 6:00 am to 6:00 pm). Animal maintenance and research were conducted in accordance with the guidelines provided by the National Institutes of Health Committee on Laboratory Animal Resources. These subjects were used in the tests below.
The terminal 10 cm of the tail (rat) was placed into a thermos bottle containing water warmed to 38, 42, 46, 50 or 54° C. The latency in seconds for the animal to remove the tail from the water was used as a measure of nociception. […]
The ability of the compounds to reverse PGE2-induced thermal hypersensitivity was assessed using a single dose time-course procedure. […] sensitivity was assessed 30 min after PGE2 injection.
Data Analysis—The temperature that produced a half-maximal increase in the tail-withdrawal latency (i.e., T10) was calculated from each temperature-effect curve. The T10 was determined by interpolation from a line drawn between the point above and the point below 10 sec on the temperature-effect curve. […] Reversal of thermal hypersensitivity was defined as a return to baseline of the temperature-effect curve and the T10 value and was calculated according to the following equation: […]

The term melting point denotes the temperature, or range, at which the solid turns liquid. Regarding `CCOC(=O)c1cccc(OP(=O)(CCN2CCCNc3c2c(=O)c3=O)Oc2cccc(C(=O)OCC)c2)c1` [Example 1, Diethyl 3,3′-[({2-[8,9-dioxo-2,6-diazabicyclo[5.2.0]non-1(7)-en-2-yl]ethyl}phosphoryl)bis(oxy)]dibenzoate], the melting point was 116 to 117 °C. Moreover, the “reversing PGE2-induced thermal hypersensitivity (% MPE)” value in series [1] was determined as 40%.
